Test results as given in US9975874B2, “Factor XIa inhibitors” (Merck Sharp & Dohme Corp., priority 2014, dated 2018).

Legend:
[1] = target: purified Human plasma kallikrein (Homo sapiens (Human), UniProt P03952); experiment: Kallikrein Assay; assay type: biochemical; settings: Plasma kallikrein; substrate Acetyl-K-P-R-AFC, 0.5 nM enzyme, pH 7.4; read-out: PK IC50
Method: (§1) The effectiveness of a compound of the present invention as an inhibitor of Kallikrein can be determined using a relevant purified serine protease, and an appropriate synthetic substrate. The rate of hydrolysis of the chromogenic or fluorogenic substrate by the relevant serine protease was measured both in the absence and presence of compounds of the present invention. Assays were conducted at room temperature or at 37° C. […] A decrease in the rate of fluorescence change in the presence of inhibitor is indicative of enzyme inhibition. Such methods are known to one skilled in the art. The results of this assay are expressed as the inhibitory constant, Ki.
Kallikrein determinations were made in 50 mM HEPES buffer at pH 7.4 containing 150 mM NaCl, 5 mM CaCl2, and 0.1% PEG 8000 (polyethylene glycol; Fisher Scientific). Determinations were made using purified Human plasma kallikrein at a final concentration of 0.5 nM (Enzyme Research Laboratories) and the synthetic substrate, Acetyl-K-P-R-AFC (Sigma # C6608) at a concentration of […].
Times required to achieve equilibration between enzyme and inhibitor were determined in control experiments. The reactions were performed under linear progress curve conditions and fluorescence increase measured at 405 Ex/510 Em nm. […] IC50 was determined by inflection point from a four parameter logistic curve fit. Ki was calculated using the Cheng Prusoff equation, Ki=IC50/(1+([S]/Km)).

[2] = target: purified human Factor XIa (Homo sapiens (Human), UniProt P03951); experiment: Factor XIa Assay; assay type: biochemical; settings: substrate Z-Gly-Pro-Arg-AFC 100 μM, 40 pM enzyme, pH 7.4; read-out: FXIa IC50
Sequence of purified human Factor XIa (P03951 388-625): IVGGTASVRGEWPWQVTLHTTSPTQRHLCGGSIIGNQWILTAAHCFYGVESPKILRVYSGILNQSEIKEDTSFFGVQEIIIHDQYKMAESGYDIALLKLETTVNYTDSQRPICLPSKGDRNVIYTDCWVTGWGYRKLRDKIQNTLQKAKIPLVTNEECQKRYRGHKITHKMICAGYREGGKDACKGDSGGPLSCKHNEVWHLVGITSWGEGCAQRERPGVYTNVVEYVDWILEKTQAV
Sequence of purified human Factor XIa (P03951 19-387 partner): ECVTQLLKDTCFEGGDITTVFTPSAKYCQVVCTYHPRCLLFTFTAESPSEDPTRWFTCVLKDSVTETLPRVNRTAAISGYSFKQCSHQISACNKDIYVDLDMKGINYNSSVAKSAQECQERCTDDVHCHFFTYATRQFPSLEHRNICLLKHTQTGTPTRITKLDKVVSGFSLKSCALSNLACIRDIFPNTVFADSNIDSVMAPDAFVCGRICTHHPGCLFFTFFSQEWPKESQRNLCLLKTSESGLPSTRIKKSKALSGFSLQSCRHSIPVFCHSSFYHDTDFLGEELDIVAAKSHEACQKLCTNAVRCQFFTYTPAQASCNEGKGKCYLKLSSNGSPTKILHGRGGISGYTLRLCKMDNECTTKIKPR
Method: as §1, with “Coagulation Factor XIa” for “Kallikrein”, “The results of this assay are expressed as the inhibitory constant, Ki.” left out
Factor XIa determinations were made in 50 mM HEPES buffer at pH 7.4 containing 150 mM NaCl, 5 mM CaCl2, and 0.1% PEG 8000 (polyethylene glycol; JT Baker or Fisher Scientific). Determinations were made using purified human Factor XIa at a final concentration of 40 pM (Sekisui Diagnostics) and the synthetic substrate, Z-Gly-Pro-Arg-AFC, TFA salt (Sigma #C0980) at a concentration of 100 μM.
Times required to achieve equilibration between enzyme and inhibitor were determined in control experiments. Initial velocities of product formation in the absence (Vo) or presence of inhibitor (Vi) were measured. Assuming competitive inhibition, and that unity is negligible compared Km/[S], [I]/e, and [I]/e (where [S], [I], and e respectively represent the total concentrations, of substrate, inhibitor and enzyme), the equilibrium constant (Ki) for dissociation of the inhibitor from the enzyme can be obtained from the dependence of Vo/Vi on [I] shown in the following equation.

Sequence of purified Human plasma kallikrein (P03952 391-638): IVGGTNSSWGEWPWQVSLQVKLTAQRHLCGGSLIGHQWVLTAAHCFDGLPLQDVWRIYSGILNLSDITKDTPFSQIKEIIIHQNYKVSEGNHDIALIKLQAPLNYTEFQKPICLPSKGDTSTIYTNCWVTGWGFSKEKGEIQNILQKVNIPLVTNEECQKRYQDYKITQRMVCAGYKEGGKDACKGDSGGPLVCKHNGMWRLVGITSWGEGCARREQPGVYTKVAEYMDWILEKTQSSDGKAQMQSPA
Sequence of purified Human plasma kallikrein (P03952 20-390 partner): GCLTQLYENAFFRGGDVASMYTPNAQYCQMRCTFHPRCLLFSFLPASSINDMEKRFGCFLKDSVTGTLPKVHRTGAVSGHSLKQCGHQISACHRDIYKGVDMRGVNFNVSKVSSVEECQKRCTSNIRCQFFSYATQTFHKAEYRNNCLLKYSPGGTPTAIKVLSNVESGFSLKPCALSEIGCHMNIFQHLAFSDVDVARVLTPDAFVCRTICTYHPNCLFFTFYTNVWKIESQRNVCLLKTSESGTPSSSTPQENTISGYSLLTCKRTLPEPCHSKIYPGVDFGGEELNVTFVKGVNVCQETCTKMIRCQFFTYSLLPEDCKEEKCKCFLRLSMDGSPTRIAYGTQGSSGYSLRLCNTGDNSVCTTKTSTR

Structure (SMILES)	IC50 [1] [nM]	IC50 [2] [nM]
O=C(NC1CCCC1)N1CCC(c2cccc([C@H](Cc3ccccc3)c3ccc(-c4cc(Cl)ccc4-n4cnnn4)c[n+]3[O-])c2)CC1 [Example 47, 4-{3-[(1S)-1-{5-[5-chloro-2-(1H-tetrazol-1-yl)phenyl]-1-oxidopyridin-2-yl}-2-phenylethyl]phenyl}-N-cyclopentyl piperidine-1-carboxamide]	879	20.1
COCCNC(=O)N1CCC(c2cccc([C@H](Cc3ccccc3)c3ccc(-c4cc(Cl)ccc4-n4cnnn4)c[n+]3[O-])c2)CC1 [Example 48, 4-{3-[(1s)-1-{5-[5-chloro-2-(1H-tetrazol-1-yl)phenyl]-1-oxidopyridin-2-yl}-2-phenylethyl]phenyl}-N-(2-methoxyethyl) piperidine-1-carboxamide]	325	8.71
O=C(NC1CCOC1)N1CCC(c2cccc([C@H](Cc3ccccc3)c3ccc(-c4cc(Cl)ccc4-n4cnnn4)c[n+]3[O-])c2)CC1 (stereo partly drawn) [Example 49, 4-{3-[(1S)-1-{5-[5-chloro-2-(1H-tetrazol-1-yl)phenyl]-1-oxidopyridin-2-yl}-2-phenylethyl]phenyl}-N-(tetrahydrofuran-3-yl)piperidine-1-carboxamide]	414	6.89
O=C(NC1CCC1)N1CCC(c2cccc([C@H](Cc3ccccc3)c3ccc(-c4cc(Cl)ccc4-n4cnnn4)c[n+]3[O-])c2)CC1 [Example 51, 4-{3-[(1S)-1-{5-[5-chloro-2-(1H-tetrazol-1-yl)phenyl]-1-oxidopyridin-2-yl}-2-phenylethyl]phenyl}-N-cyclobutyl piperidine-1-carboxamide]	614	13.2
O=C(NCC1CCOC1)N1CCC(c2cccc([C@H](Cc3ccccc3)c3ccc(-c4cc(Cl)ccc4-n4cnnn4)c[n+]3[O-])c2)CC1 (stereo partly drawn) [Example 52, 4-{3-[(1S)-1-{5-[5-chloro-2-(1H-tetrazol-1-yl)phenyl]-1-oxidopyridin-2-yl}-2-phenylethyl]phenyl}-N-(tetrahydrofuran-3-ylmethyl) piperidine-1-carboxamide]	384	6.48
